Earlier results in patent US20110033536A1, “24-HOUR SUSTAINED-RELEASE METOCLOPRAMIDE” (POSIVISIONARY SOLUTIONS LLP, priority 2008, published 2011).

Plasma concentrations related to extrapyramidal effects (akathisia) (relationship stated as determined, no own test): above 120 ng/ml
Structure (SMILES): CCN(CC)CCNC(=O)c1cc(Cl)c(N)cc1OC [metoclopramide]
Plasma concentrations at which undesirable side effects (akathisia) are present (literature (Bateman 1979; Parlak 2005)): above 100 nanograms per milliliter
